Results as given in patent US9422292B2, “Bromodomain inhibitors and uses thereof” (Constellation Pharmaceuticals, Inc., priority 2011, dated 2016).

Legend:
[1] = molecular target: T1, BRD4 (BD1) (Homo sapiens, UniProt O60885); assay: BRD4 AlphaLisa binding assay; conditions: BRD4 (BD1) 30 nM, biotinylated H4-tetraacetyl peptide 200 nM; read-out: BRD4 AlphaLisa
T1 construct: His; made in house
Description: A. IC50 Measurements for Inhibitors Using BRD4 AlphaLisa Binding Assay.
Specifically, in a 384 well ProxiPlate BRD4 (BD1) (30 nM final) was combined with peptide (200 nM final) in 40 mM HEPES (pH 7.0), 40 mM NaCl, 1 mM DTT, 0.01% (w/v) BSA, and 0.008% (w/v) Brij-35 either in the presence of DMSO (final 1.2% DMSO) or compound dilution series in DMSO. After 20 minute incubation at room temperature Alpha streptavidin donor beads and AlphaLisa anti-Flag acceptor beads were added to a final concentration of 10 ug/mL each. After three hours equilibration plates were read on an Envision instrument and IC50s calculated using a four parameter non-linear curve fit.

[2] = test system: MYC mRNA in MV4:11 (AML) cells; assay: cMyc RNA quantification assay (QuantiGene) in MV4:11 cells; assay type: cell-based; conditions: Homo sapiens, 4 h, QuantiGene 2.0
Description: B. cMyc RNA Quantification Assay (QuantiGene® Assay):
MV4:11 (AML) cells were seeded in a 96-well plate and incubated in the presence of various concentrations of compounds for 4 h. Relative mRNA levels were quantitated by using QuantiGene 2.0 assay (Affymetrix) according to the manufacturer's recommendation. Signals were detected by using an Envision plate reader (Perkin-Elmer). Biological duplicates were averaged and normalized to vehicle (DMSO) control to calculate percent MYC mRNA levels.

[3] = test system: IL-6 secretion in THP-1 cells; assay: Cell-based IL-6 quantification assay (ELISA, Mesoscale) in LPS-treated THP-1 cells; conditions: Homo sapiens, LPS 4 μg/mL, 16 h, ELISA value/CellTiter-Glo ratio
Description: C. Cell-Based IL-6 Quantification Assay (ELISA, Mesoscale Assay):
100,000 THP-1 cells were seeded in RPMI1640-10% FBS in 96-well plates. LPS (E. Coli Invitrogen) in RPMI−10% FBS at a final concentration of 4 μg/mL was added to the wells and the cells are then incubated in the presence of various concentrations of compounds for 16 h. Plates are spun ([…], 5 min), an aliquot of 25 uL supernatant is transferred in to an ELISA plate (Mesoscale technology, MSD) and the detection of IL-6 is performed using manufacturer's instructions. The amount of cells in each well is assessed using CellTiter-Glo® (Promega). The ratio of ELISA value/CellTiter-Glo value is used to calculate the percent of inhibition of IL-6 secretion.

SMILES | IC50 [1] [nM] | IC50 [2] [nM] | IC50 [3] [nM]
Cc1nnc2n1-c1ccc(-c3cnn(C)n3)cc1N(c1ccc(Cl)cc1)C[C@H]2C [Compound 48, 4H-[1,2,4]triazolo[4,3-a][1,5]benzodiazepine, 5,6-dihydro-(4R)-1,4-dimethyl-8-(2-methyl-2H-1,2,3-triazole-4-yl)-6-(4-chloro-phenyl)] | < 100 | < 100 | < 100
Cc1nnc(-c2ccc3c(c2)N(c2ccc(Cl)cc2)C[C@@H](C)c2nnc(C)n2-3)o1 [Compound 49, 4-R-4H-[1,2,4]triazolo[4,3-a][1,5]benzodiazepine,5,6-dihydro-1,4-dimethyl-8-(5-methyl-1,3,4-oxadiazol-2-yl)-6-(4-chloro-phenyl)] | < 100 | < 100 | < 100
Cc1nc(-c2ccc3c(c2)N(c2ccc(Cl)cc2)C[C@@H](C)c2nnc(C)n2-3)no1 [Compound 50, 4-R-4H-[1,2,4]triazolo[4,3-a][1,5]benzodiazepine, 5,6-dihydro-1,4-dimethyl-8-(5-methyl-1,2,4-oxadiazol-3-yl)-6-(4-chloro-phenyl)] | 100 to 1000 | < 100 | < 100
Cc1noc(-c2ccc3c(c2)N(c2ccc(Cl)cc2)C[C@@H](C)c2nnc(C)n2-3)n1 [Compound 51, 4-R-4H-[1,2,4]triazolo[4,3-a][1,5]benzodiazepine,5,6-dihydro-1,4-dimethyl-8-(3-methyl-1,2,4-oxadiazol-5-yl)-6-(4-chloro-phenyl)] | 100 to 1000 | < 100 | < 100
Cc1nnc2n1-c1ccc(-c3cnn(C)c3)cc1N(c1ccc(C#N)cn1)C[C@H]2C [Compound 52, (R)-4H-[1,2,4]triazolo[4,3-a][1,5]benzodiazepine,5,6-dihydro-1,4-dimethyl-8-(1-methyl-1H-pyrazol-4-yl)-6-(5-cyanopyridin-2-yl)] | < 100 | 100 to 1000 | < 100
Cc1nnc2n1-c1ccc(C(=O)N3CCCC3)cc1N(c1ccc(Cl)cc1)C[C@H]2C [Compound 53, 4-R-4H-[1,2,4]triazolo[4,3-a][1,5]benzodiazepine,5,6-dihydro-1,4-dimethyl-8-(pyrrolidine-1-carbonyl)-6-(4-chloro-phenyl)] | 100 to 1000 | 1000 to 10000 | 100 to 1000
Cc1nnc2n1-c1ccc(-n3cncn3)cc1N(c1ccc(Cl)cc1)C[C@H]2C [Compound 54, (R)-6-(4-chlorophenyl)-1,4-dimethyl-8-(1H-1,2,4-triazol-1-yl)-5,6-dihydro-4H-benzo[b][1,2,4]triazolo[4,3-d][1,4]diazepine] | < 100 | < 100 | < 100
Cc1nnc2n1-c1ccc(-c3cnc(N)cn3)cc1N(c1ccc(Cl)cc1)C[C@H]2C [Compound 55, 4-R-4H-[1,2,4]triazolo[4,3-a][1,5]benzodiazepine,5,6-dihydro-1,4-dimethyl-8-(5-aminopyrazin-2-yl)-6-(4-chloro-phenyl)] | < 100 | < 100 | < 100
Cc1nnc2n1-c1ccc(-c3cnn(C)c3)cc1N(c1ccc(C#N)cn1)C[C@@H]2C [Compound 58, (S)-4H-[1,2,4]triazolo[4,3-a][1,5]benzodiazepine, 5,6-dihydro-1,4-dimethyl-8-(1-methyl-1H-pyrazol-4-yl)-6-(5-cyanopyridin-2-yl)] | 1000 to 10000 | 1000 to 10000 | 1000 to 10000
Cc1c(-c2ccc3c(c2)N(c2ccc(Cl)cc2)C[C@@H](C)c2nnc(C)n2-3)cnn1C [Compound 59, (R)-6-(4-chlorophenyl)-8-(1,5-dimethyl-1H-pyrazol-4-yl)-1,4-dimethyl-5,6-dihydro-4H-benzo[b][1,2,4]triazolo[4,3-d][1,4]diazepine] | < 100 | < 100 | < 100
Cc1nnc2n1-c1ccc(S(C)(=O)=O)cc1N(c1ccc(Cl)cc1)C[C@H]2C [Compound 60, 4H-[1,2,4]Triazolo[4,3-a][1,5]benzodiazepine,5,6-dihydro-(4R)-1,4-dimethyl-8-methylsulfonyl-6-(4-chloro-phenyl)] | 100 to 1000 | 1000 to 10000 | 100 to 1000
Cc1nnc2n1-c1ccc(-c3ccc(=O)[nH]c3)cc1N(c1ccc(Cl)cc1)C[C@H]2C [Compound 61, (R)-5-(6-(4-chlorophenyl)-1,4-dimethyl-5,6-dihydro-4H-benzo[b][1,2,4]triazolo[4,3-d][1,4]diazepin-8-yl)pyridin-2(1H)-one] | < 100 | < 100 | < 100
Cc1nnc2n1-c1ccc(-c3ccc(=O)n(C)c3)cc1N(c1ccc(Cl)cc1)C[C@H]2C [Compound 62, (R)-5-(6-(4-chlorophenyl)-1,4-dimethyl-5,6-dihydro-4H-benzo[b][1,2,4]triazolo[4,3-d][1,4]diazepin-8-yl)-1-methylpyridin-2(1H)-one] | < 100 | < 100 | < 100
Cc1nnc2n1-c1ccc(-c3cnc(N)cn3)cc1N(c1ccc(C#N)cc1)C[C@@H]2C [Compound 63] | 100 to 1000 | 1000 to 10000 | > 1000
Cc1nnc2n1-c1ccc(-c3cn(C)nn3)cc1N(c1ccc(Cl)cc1)C[C@H]2C [Compound 64, 4H-[1,2,4]Triazolo[4,3-a][1,5]benzodiazepine, 5,6-dihydro-1,4-dimethyl-8-(1-methyl-2H-1,2,3-triazole-4-yl)-6-(4-chloro-phenyl)] | < 100 | < 100 | < 100
Cc1ncnn1-c1ccc2c(c1)N(c1ccc(Cl)cc1)C[C@@H](C)c1nnc(C)n1-2 [Compound 65, (R)-6-(4-chlorophenyl)-1,4-dimethyl-8-(5-methyl-1H-1,2,4-triazol-1-yl)-5,6-dihydro-4H-benzo[b][1,2,4]triazolo[4,3-d][1,4]diazepine] | 100 to 1000 | 1000 to 10000 | 100 to 1000
Cc1ncn(-c2ccc3c(c2)N(c2ccc(Cl)cc2)C[C@@H](C)c2nnc(C)n2-3)n1 [Compound 66, (R)-6-(4-chlorophenyl)-1,4-dimethyl-8-(3-methyl-1H-1,2,4-triazol-1-yl)-5,6-dihydro-4H-benzo[b][1,2,4]triazolo[4,3-d][1,4]diazepine] | < 100 | < 100 | < 100
Cc1nnc2n1-c1ccc(-c3ccc(=O)[nH]c3)cc1N(c1ccc(C#N)cc1)C[C@H]2C [Compound 68, (R)-4-(1,4-dimethyl-8-(6-oxo-1,6-dihydropyridin-3-yl)-4H-benzo[b][1,2,4]triazolo[4,3-d][1,4]diazepin-6(5H)-yl)benzonitrile] | < 100 | 1000 to 10000 | 1000 to 10000
Cc1nnc2n1-c1ccc(-c3ccc(N)nc3)cc1N(c1ccc(N)nc1)C[C@H]2C [Compound 71, (R)-5,5′-(1,4-dimethyl-4H-benzo[b][1,2,4]triazolo[4,3-d][1,4]diazepine-6,8(5H)-diyl)dipyridin-2-amine] | < 100 | 1000 to 10000 | 1000 to 10000
Cc1nnc2n1-c1ccc(-c3cnn(C)n3)cc1N(c1ccc(S(C)(=O)=O)cc1)C[C@@H]2C [Compound 72, (R)-4H-[1,2,4]Triazolo[4,3-a][1,5]benzodiazepine, 5,6-dihydro-1,4-dimethyl-8-(2-methyl-2H-1,2,3-triazole-4-yl)-6-(4-methylsulfonyl-phenyl)] | 100 to 1000 | 1000 to 10000 | > 1000
Cc1nnc2n1-c1ccc(-c3cnn(C)n3)cc1N(c1ccc(S(C)(=O)=O)cc1)C[C@H]2C [Compound 73, (S)-4H-[1,2,4]Triazolo[4,3-a][1,5]benzodiazepine, 5,6-dihydro-1,4-dimethyl-8-(2-methyl-2H-1,2,3-triazole-4-yl)-6-(4-methylsulfonyl-phenyl)] | < 100 | 100 to 1000 | 100 to 1000
Cc1nnc2n1-c1ccc(-c3cnn(C)n3)cc1N(c1ccc(C#N)cc1)C[C@H]2C [Compound 75, (S)-4H-[1,2,4]Triazolo[4,3-a][1,5]benzodiazepine, 5,6-dihydro-1,4-dimethyl-8-(2-methyl-2H-1,2,3-triazole-4-yl)-6-(4-cyano-phenyl)] | < 100 | < 100 | < 100
Cc1nnc2n1-c1ccc(Br)cc1N(c1ccc(S(C)(=O)=O)cc1)C[C@H]2C [Compound 77, (R)-8-bromo-1,4-dimethyl-6-(4-(methylsulfonyl)phenyl)-5,6-dihydro-4H-benzo[b][1,2,4]triazolo[4,3-d][1,4]diazepine] | 1000 to 10000 | 1000 to 10000 | > 1000
